Test results: publication PMC8730463, “The human gut symbiont Ruminococcus gnavus shows specificity to blood group A antigen during mucin glycan foraging: Implication for niche colonisation in the gastrointestinal tract” (PLoS Biology, 2021)

Experiments:
[1] = biological target: T1, Ulex Europaeus Agglutinin I (UEA I) (Ulex europaeus, UniProt P22972); assay: ITC (control lectin); format: binding
T1 sequence (P22972 1-243): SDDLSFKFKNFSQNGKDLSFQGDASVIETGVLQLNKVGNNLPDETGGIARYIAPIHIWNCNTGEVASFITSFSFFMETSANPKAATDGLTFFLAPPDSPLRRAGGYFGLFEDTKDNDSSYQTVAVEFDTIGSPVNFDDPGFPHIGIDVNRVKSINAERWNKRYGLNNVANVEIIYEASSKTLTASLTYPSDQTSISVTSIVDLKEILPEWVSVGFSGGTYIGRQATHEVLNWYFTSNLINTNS

RgGH98 = biological target: T2, RgGH98; assay: crystal structure ([…] Å), ITC and STD NMR; format: binding, Mediterraneibacter gnavus
T2 construct: gene RGna_RS10325; 44–946 aa (N-term GBLD, catalytic domain, C-term domain)

Row | Kd [1] | Structure (SMILES) | Kd (RgGH98)
1 | 10.3 µM | CC(=O)N[C@H]1C(O)O[C@H](CO)[C@@H](O[C@@H]2O[C@H](CO)[C@H](O)[C@H](O)[C@H]2O[C@@H]2O[C@@H](C)[C@@H](O)[C@@H](O)[C@@H]2O)[C@@H]1O (some centres unmarked) [BgH, blood group H trisaccharide] | 
2 |  | CC(=O)N[C@H]1[C@@H](O[C@H]2[C@@H](O)[C@@H](CO)O[C@@H](O[C@H]3[C@H](O)[C@@H](NC(C)=O)C(O)O[C@@H]3CO)[C@@H]2O[C@@H]2O[C@@H](C)[C@@H](O)[C@@H](O)[C@@H]2O)O[C@H](CO)[C@H](O)[C@@H]1O (some centres unmarked) [BgA II, blood group A tetrasaccharide type II] | 490 µM
